Test results: patent publication US12415786B2, “Substituted 2-heteroarylaminobenzenes and the salts thereof and their use as herbicidal agents” (Bayer Aktiengesellschaft, priority 2019, dated 2025)

Assays:
Assay type in all cases: in vivo
[1] = system: Agrostis tenuis; assay: Herbicidal early post-emergence action (96-well microtiter plates), AGSTE; details: 1900 g/ha, scored 9 to 12 days after treatment, 100% = plants have died, 0% = like untreated control plants
From the text: (§1) In the examples and tables below, the following abbreviations are used: • Undesired Plants/Weeds: • ABUTH: Abutilon theophrasti • AGSTE: Agrostis tenuis • AMARE Amaranthus retroflexus • ECHCG: Echinochloa crus-galli • LOLRI: Lolium rigidum • MATIN: Matricaria inodora • POAAN: Poa annua • SETVI: Setaria viridis • STEME: Stellaria media A. Herbicidal Early Post-Emergence Action Seeds of monocotyledonous and dicotyledonous weed plants were placed in 96-well microtiter plates in quartz sand and grown in a climatized chamber under controlled growth conditions. 5 to 7 days after sowing, the test plants were treated at the cotyledon stage. The compounds according to the invention, formulated in the form of emulsion concentrates (EC), were applied with a water application rate of the equivalent of 2200 liters per hectare. After the test plants had been left to stand in the climatized chamber for 9 to 12 days under optimum growth conditions, the effect of the preparations was scored visually in comparison to untreated controls. Here, for example, 100% activity=the plants have died, 0% activity=like untreated control plants. Tables A1 to A2 below show the effects of selected compounds of the general formula (I) according to Table 1 above on various harmful plants and an application rate corresponding to 1900 g/ha, which were obtained by the experimental procedure mentioned above.

[2] = system: Setaria viridis; assay: Herbicidal pre-emergence action (greenhouse pots), SETVI; details: 1280 g/ha, visual scoring after about 3 weeks vs untreated controls
From the text: (§2) In the examples and tables below, the following abbreviations are used: • Undesired Plants/Weeds: • ABUTH: Abutilon theophrasti • AGSTE: Agrostis tenuis • AMARE Amaranthus retroflexus • ECHCG: Echinochloa crus-galli • LOLRI: Lolium rigidum • MATIN: Matricaria inodora • POAAN: Poa annua • SETVI: Setaria viridis • STEME: Stellaria media A. Herbicidal Early Post-Emergence Action Seeds of mono- and dicotyledonous weed plants were placed in plastic pots in sandy loam soil (doubly sown with one species each of mono- or dicotyledonous weed plants per pot) and covered with soil. The compounds of the invention, formulated in the form of wettable powders (WP) or as emulsion concentrates (EC), were then applied onto the surface of the covering soil as aqueous suspension or emulsion with addition of 0.5% additive at a water application rate of 600 liters per hectare (converted). After the treatment, the pots were placed in a greenhouse and kept under good growth conditions for the test plants. After about 3 weeks, the effect of the preparations was scored visually in comparison with untreated controls as percentages. For example, 100% activity=the plants have died, 0% activity=like untreated control plants. Tables C1-C8 below show the effects of selected compounds of the general formula (I) according to Table 1 above on various harmful plants and an application rate corresponding to 1280 g/ha, which were obtained by the experimental procedure mentioned above.

[3] = system: Amaranthus retroflexus; assay: Herbicidal pre-emergence action (greenhouse pots), AMARE; details: 1280 g/ha, visual scoring after about 3 weeks vs untreated controls
From the text: as §2

[4] = system: Abutilon theophrasti; assay: Herbicidal post-emergence action (greenhouse pots), ABUTH; details: 1280 g/ha, visual rating about 3 weeks after treatment vs untreated controls
From the text: (§3) In the examples and tables below, the following abbreviations are used: • Undesired Plants/Weeds: • ABUTH: Abutilon theophrasti • AGSTE: Agrostis tenuis • AMARE Amaranthus retroflexus • ECHCG: Echinochloa crus-galli • LOLRI: Lolium rigidum • MATIN: Matricaria inodora • POAAN: Poa annua • SETVI: Setaria viridis • STEME: Stellaria media A. Herbicidal Early Post-Emergence Action Seeds of mono- and dicotyledonous weed plants were placed in plastic pots in sandy loam soil (doubly sown with in each case one species of mono- or dicotyledonous weed plants per pot), covered with soil and cultivated in a greenhouse under controlled growth conditions. 2 to 3 weeks after sowing, the test plants were treated at the one-leaf stage. The compounds of the invention, formulated in the form of wettable powders (WP) or as emulsion concentrates (EC), were applied onto the green parts of the plants as aqueous suspension or emulsion with addition of 0.5% additive at a water application rate of 600 liters per hectare (converted). After the test plants had been kept in the greenhouse under optimum growth conditions for about 3 weeks, the activity of the preparations was rated visually in comparison to untreated controls. For example, 100% activity=the plants have died, 0% activity=like untreated control plants. Tables B1-B8 below show the effects of selected compounds of the general formula (I) according to Table 1 above on various harmful plants and an application rate corresponding to 1280 g/ha, which were obtained by the experimental procedure mentioned above.

[5] = system: Poa annua; assay: Herbicidal early post-emergence action (96-well microtiter plates), POAAN; details: 1900 g/ha, scored 9 to 12 days after treatment, 100% = plants have died, 0% = like untreated control plants
From the text: as §1

[6] = system: Stellaria media; assay: Herbicidal pre-emergence action (greenhouse pots), STEME; details: 1280 g/ha, visual scoring after about 3 weeks vs untreated controls
From the text: as §2

[7] = system: Amaranthus retroflexus; assay: Herbicidal post-emergence action (greenhouse pots), AMARE; details: 1280 g/ha, visual rating about 3 weeks after treatment vs untreated controls
From the text: as §3

[8] = system: Poa annua; assay: Herbicidal pre-emergence action (greenhouse pots), POAAN; details: 1280 g/ha, visual scoring after about 3 weeks vs untreated controls
From the text: as §2

[9] = system: Stellaria media; assay: Herbicidal post-emergence action (greenhouse pots), STEME; details: 1280 g/ha, visual rating about 3 weeks after treatment vs untreated controls
From the text: as §3

[10] = system: Matricaria inodora; assay: Herbicidal pre-emergence action (greenhouse pots), MATIN; details: 1280 g/ha, visual scoring after about 3 weeks vs untreated controls
From the text: as §2

[11] = system: Echinochloa crus-galli; assay: Herbicidal pre-emergence action (greenhouse pots), ECHCG; details: 1280 g/ha, visual scoring after about 3 weeks vs untreated controls
From the text: as §2

SMILES	AGSTE (herbicidal activity, scored visually in comparison to untreated controls) [1] [%]	herbicidal activity SETVI [2] [%]	herbicidal activity AMARE [3] [%]	herbicidal activity ABUTH [4] [%]	POAAN (herbicidal activity, scored visually in comparison to untreated controls) [5] [%]	herbicidal activity STEME [6] [%]	herbicidal activity AMARE [7] [%]	herbicidal activity POAAN [8] [%]	herbicidal activity STEME [9] [%]	herbicidal activity MATIN [10] [%]	herbicidal activity ECHCG [11] [%]
N#Cc1cccc(Nc2ncc(Cl)cn2)c1Oc1ccc(F)cc1Cl [Example 1-293]	80	100	100	90	80	90	100				
Clc1cnc(Nc2cccc(Cl)c2Oc2ccccc2)nc1 [Example 1-340]	80	100	100	90	100	90	100	100	100		
N#Cc1cccc(Nc2ncccn2)c1Oc1ccc(F)cc1Cl [Example 1-255]	80		100		80	100	100		100		
N#Cc1cccc(Nc2ccc(F)cn2)c1Oc1ccc(F)c(F)c1 [Example 1-111]	100	90	100	90	100	100	100		90	90	
N#Cc1cnc(Nc2cccc(C#N)c2Oc2ccc(F)c(F)c2)nc1 [Example 1-305]	100	90	100		100	100	100	100	100	100	
N#Cc1cccc(Nc2ncc(Cl)cn2)c1Oc1cccc(F)c1 [Example 1-285]		100	100			100	100	100			90
N#Cc1cnc(Nc2cccc(C#N)c2Oc2ccc(F)cc2)nc1 [Example 1-304]	100	100	100		100	100	100	100		100	
N#Cc1cccc(Nc2ccc(F)cn2)c1Oc1ccc(F)cc1 [Example 1-106]	100		100		100		100	100	90		
N#Cc1cccc(Nc2ncc(OC(F)F)cn2)c1Oc1ccc(F)cc1 [Example 1-314]	100	100		90	80		100		100		
COc1cnc(Nc2cccc(C#N)c2Oc2ccc(F)cc2)nc1 [Example 1-312]	100	90	100	100	100	100	100	100	100	100	
Clc1cnc(Nc2ccccc2Oc2cccnc2)nc1 [Example 3-49]	80			90			100				
N#Cc1cccc(Nc2ncccn2)c1Oc1ccc(F)cc1F [Example 1-251]	80	90	100		80	100	100			100	
N#Cc1ccc(Oc2ccccc2Nc2ncc(Cl)cn2)cc1 [Example 1-339]	100				100		100		100		
N#Cc1cccc(Nc2ncc(F)cn2)c1Oc1ccc(F)cc1Cl [Example 1-274]	80		90		100	90	100	90	90		
N#Cc1cccc(Nc2ncccn2)c1Oc1ccc(Cl)cc1F [Example 1-256]	80	90	100		80	100	100	100		90	
N#Cc1cccc(Nc2ccccn2)c1Oc1ccc(F)cc1 [Example 1-88]	100	90	100		80				100		
N#Cc1cccc(Nc2ncccn2)c1Oc1ccc(Cl)cc1 [Example 1-250]	80	90	100		80	100	100	100	90		
COc1cccc(Oc2c(C#N)cccc2Nc2ncc(Cl)cn2)c1 [Example 1-300]	80		90			100	100			90	
